Entries after “also recorded” stand apart in the source; their conditions may differ.

One data set concerns MCF-7/AdrVp. In words: Mitoxantrone accumulation assay (flow cytometry). It is filed as cell-based, human. Particulars: 50 µM TPS-A. The procedure:
(§1) Cellular mitoxantrone accumulation was determined according to the procedure described in Lage H et al., FEBS Lett 2001;503:179-84. Briefly, 4 x 10^5 cells were seeded out in 6-well plates 78 hours prior to the experiment. Incubation with mitoxantrone (0, 1,5 and 10 µg/ml) was performed for 60 minutes at 37°C and 70-80 % cellular confluence. For kinetics of intracellular enrichment of mitoxantrone, cells were exposed to 10 µg/ml mitoxantrone for 0, 5, 10 and 60 min. Cells were washed with ice-cold PBS, trypsinized and resuspended in 4 °C PBS at a concentration of 4 x 10^5 cells/ml. Intracellular fluorescence of mitoxantrone was determined by flow cytometry (Becton-Dickinson, San Jose, CA). The cells were excited at 480 nm and emission was measured at 630 nm. A minimum of 10^4 cells was analyzed for each sample. All assays were performed at least in three independent experiments, each time with triplicate wells.
(§2) To provide confirmation that the observed resensitization to mitoxantrone of BCRP-overexpressing cells was indeed the result of BCRP inhibition by TPS-A, a mitoxantrone accumulation assay was performed. The known so-called "multispecific" MDR modulator GF120918, inhibiting P-gp- and BCRP activity, was used as a positive control for P-gp- and BCRP antagonism.

In data set [1] the test system is BCRP-positive, atypical MDR gastric carcinoma cell line EPG85-257RNOV. In words: Mitoxantrone accumulation assay (flow cytometry). The format is cell-based, human. Particulars: 10 µM TPS-A; mitoxantrone 60 min at 37 °C (Fig 4A). The method, then:
as §1, §2

In data set [2] the test system is P-gp-expressing, classical MDR variant EPG85-257RDB. In words: Mitoxantrone accumulation assay (flow cytometry). It is filed as cell-based, human. Particulars: TPS-A (Fig 4A). The method, then:
as §1, §2

The test system of data set [3] is BCRP-transfected cell variant MCF-7/BCRP clone 8. In words: Mitoxantrone accumulation assay (flow cytometry). Particulars: 50 µM TPS-A; compared to drug accumulation level in the untreated, parental control cell line (Fig 4B). The format is cell-based, human. The procedure:
as §1, §2

The test system of data set [4] is drug-sensitive, parental cell line MCF-7. In words: Mitoxantrone accumulation assay (flow cytometry). The format is cell-based, human. Particulars: increasing modulator concentrations. The method, then: as §1, §2
Data set [5] relates to parental, drug-sensitive gastric carcinoma cell variant EPG85-257P. In words: Mitoxantrone accumulation assay (flow cytometry). Particulars: TPS-A (Fig 4A). The format is cell-based, human. The procedure: as §1, §2
Data set [6] deals with drug-sensitive and drug-resistant gastric and breast cancer cell lines. Kind of data set: Cytotoxicity of the MDR modulators alone (SRB proliferation assay). The format is cell-based, human. Particulars: for growth inhibitory effect / cytotoxic side effects: 10 µM TPS-A alone, any of the drug-sensitive or drug-resistant cancer cell lines tested. The method, then:
Modulation of chemoresistance was tested using a proliferation assay based on sulforhodamine B (SRB), a protein-binding reagent (Skehan P et al., J Natl Cancer Inst 1990;82:1107-12), as described in Lage H et al., Int J Hyperthermia 2000;16:291-303; Lage H et al., FEBS Lett 2001;503:179-84; Lage H et al., FEBS Lett 2001;494:54-9. In each experiment, 350 cells per well were seeded in the presence or absence of TPS-A in 96-well plates in complete medium and allowed to attach overnight. Mitoxantrone or daunorubicin were added in a dilution series in triplicate wells. After 5 days, when unselected wells were still subconfluent, incubation was terminated by replacing the medium with 10 % trichloroacetic acid, followed by incubation at 4 °C for 1 h. After samples were washed 5 times with water and air-dried, 50 µl 0.4 % SRB (Sigma, St. Louis, MO) in 1 % acetic acid was added and samples were incubated for 10 min at room temperature. Unbound dye was eliminated by washing the plates 5 times with 1 % acetic acid. After air-drying and re-solubilisation of the protein-bound dye in 10 mM Tris-HCl (pH 8.0), absorbance was quantified at 562.5 nm. To determine the IC50-value, the absorbance difference of control cells without drug was set to be 100 %. Linear regression of data was done for the linear part of the curve, and IC50-values were calculated from multiple, at least three independent experiments for each cell line.
The cytotoxicity of the MDR modulators TPS-A and GF120918 on drug-sensitive and drug-resistant gastric and breast cancer cell lines was initially assessed.

Data set [7] has as its system cell cycle progression at the G2/M phase. Particulars: literature (Cui CB et al.; Usui T et al.); cited from earlier work.
In data set [8] the test system is BCRP overexpressing cells (EPG85-257RNOV). Kind of data set: Annexin assay: FITC-Annexin V binding, exposure of endogenous PS (flow cytometry). The format is cell-based, human. Particulars: preincubation with 5 µM Tryprostatin A for 30 min at 37°C (Fig. 9, 10). The procedure:
(§3) To measure exposure of endogenous PS on the cell surface, cells were incubated on ice for 10 minutes in the dark with 9 nM FITC-Annexin V in binding buffer. Two minutes prior to the end of the incubation, propidium iodide (final 1.9 µM) was added. Cells were then washed three times, detached from the dishes through pipetting, and suspended in binding buffer. Measurement was performed with a FACSCalibur flow cytometer (Becton Dickinson, St. Louis, MO) 5 minutes after the end of incubation. Regions were set to exclude subcellular particles, and only single cells were counted (10 000 cells / sample). A further gate excluded damaged cells with elevated propidium iodide staining. Data were analyzed by Becton Dickinson CellQuest software.

For data set [9], the system named is control cells (EPG85-257P). Described as above. It is filed as cell-based, human. Particulars: treatment with Tryprostatin A (data not shown). The procedure: as §3

As for `COc1ccc2c(C[C@@H]3NC(=O)[C@@H]4CCCN4C3=O)c(CC=C(C)C)[nH]c2c1` [TPS-A, tryprostatin A], the “increase of drug accumulation with respect to control cells” value in the data set on MCF-7/AdrVp is 45%. In [1], the “increase to % of the mitoxantrone accumulation level of untreated drug-sensitive cells” value was 40%. For the same molecule, the “drug transporter inhibiting effect (mitoxantrone accumulation)” value in [2] is on record as “No significant drug transporter inhibiting effect”. The “inhibition of the mitoxantrone pump activity” value in data set [3] was “completely”. In [4], the “effect on drug accumulation” value was “only a weak dosage-depending effect”. The mitoxantrone accumulation entry in [5] is reported as “slightly increased mitoxantrone accumulation”. Also, the “growth inhibitory effect / cytotoxic side effects” value in [6] is “no growth inhibitory effect”; in data set [6] (listed as tryprostatin A), “without showing any cytotoxic side effects”. In data set [6] (TPS-A concentration range 1-100 µM), the cytotoxicity entry was “does not show any cytotoxicity”. For the same molecule, in data set [6] (multidrug-resistant tumor cell lines), the “cross-resistance to the MDR modulator” value was “No evidence of cross-resistance”. In data set [7], the “final concentration arresting cell cycle progression at the G2/M phase” value is reported as 125 µM. Also, the “level of Annexin V binding” value in [8] is “reduced the level of Annexin V binding to that of control cells; also recorded: reduced to the level found for control cells”. The “Annexin V binding” value in [9] is on record as “not affected”.

(Values after patent publication EP1464336A1, “Use of tryprostatin A for the reversal of cancer drug resistance” (Humboldt-Universität zu Berlin, priority 2003, dated 2004).)
